ChEMBL document CHEMBL4265936, “Pyrazolo[4,3-b]pyrimido[4,5-e][1,4]diazepine derivatives as new multi-targeted inhibitors of Aurora A/B and KDR” (Eur J Med Chem, 2018)

Columns and labels:
[1] = target: Receptor tyrosine-protein kinase erbB-2 (Homo sapiens) (UniProt P04626); experiment: Inhibition of recombinant human Erbb2 at 1000 nM after 60 mins by ELISA relative to control
[2] = target: T1, Aurora kinase A (Homo sapiens, UniProt O14965); experiment: Inhibition of Aurora A (unknown origin) using STK S2 as substrate after 40 mins by HTRF assay
T1 sequence (O14965 whole entry): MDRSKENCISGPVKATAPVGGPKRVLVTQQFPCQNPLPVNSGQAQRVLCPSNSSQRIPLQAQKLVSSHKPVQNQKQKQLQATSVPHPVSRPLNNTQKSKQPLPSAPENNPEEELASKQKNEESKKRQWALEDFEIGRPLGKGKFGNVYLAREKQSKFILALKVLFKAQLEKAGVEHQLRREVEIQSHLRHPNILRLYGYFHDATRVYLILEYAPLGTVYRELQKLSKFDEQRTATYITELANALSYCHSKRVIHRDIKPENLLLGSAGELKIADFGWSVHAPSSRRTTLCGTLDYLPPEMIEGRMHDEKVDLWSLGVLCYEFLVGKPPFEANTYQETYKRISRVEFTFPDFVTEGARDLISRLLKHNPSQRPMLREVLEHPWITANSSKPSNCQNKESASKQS

[3] = target: Aurora kinase B (Homo sapiens, UniProt Q96GD4); experiment: Inhibition of Aurora B (unknown origin) using STK S2 as substrate after 30 mins by HTRF assay
[4] = target: Vascular endothelial growth factor receptor 2 (Homo sapiens, UniProt P35968); experiment: biochemical; assay type: cell-based, Sf21
Vascular endothelial growth factor receptor 2, sequence (P35968 whole entry): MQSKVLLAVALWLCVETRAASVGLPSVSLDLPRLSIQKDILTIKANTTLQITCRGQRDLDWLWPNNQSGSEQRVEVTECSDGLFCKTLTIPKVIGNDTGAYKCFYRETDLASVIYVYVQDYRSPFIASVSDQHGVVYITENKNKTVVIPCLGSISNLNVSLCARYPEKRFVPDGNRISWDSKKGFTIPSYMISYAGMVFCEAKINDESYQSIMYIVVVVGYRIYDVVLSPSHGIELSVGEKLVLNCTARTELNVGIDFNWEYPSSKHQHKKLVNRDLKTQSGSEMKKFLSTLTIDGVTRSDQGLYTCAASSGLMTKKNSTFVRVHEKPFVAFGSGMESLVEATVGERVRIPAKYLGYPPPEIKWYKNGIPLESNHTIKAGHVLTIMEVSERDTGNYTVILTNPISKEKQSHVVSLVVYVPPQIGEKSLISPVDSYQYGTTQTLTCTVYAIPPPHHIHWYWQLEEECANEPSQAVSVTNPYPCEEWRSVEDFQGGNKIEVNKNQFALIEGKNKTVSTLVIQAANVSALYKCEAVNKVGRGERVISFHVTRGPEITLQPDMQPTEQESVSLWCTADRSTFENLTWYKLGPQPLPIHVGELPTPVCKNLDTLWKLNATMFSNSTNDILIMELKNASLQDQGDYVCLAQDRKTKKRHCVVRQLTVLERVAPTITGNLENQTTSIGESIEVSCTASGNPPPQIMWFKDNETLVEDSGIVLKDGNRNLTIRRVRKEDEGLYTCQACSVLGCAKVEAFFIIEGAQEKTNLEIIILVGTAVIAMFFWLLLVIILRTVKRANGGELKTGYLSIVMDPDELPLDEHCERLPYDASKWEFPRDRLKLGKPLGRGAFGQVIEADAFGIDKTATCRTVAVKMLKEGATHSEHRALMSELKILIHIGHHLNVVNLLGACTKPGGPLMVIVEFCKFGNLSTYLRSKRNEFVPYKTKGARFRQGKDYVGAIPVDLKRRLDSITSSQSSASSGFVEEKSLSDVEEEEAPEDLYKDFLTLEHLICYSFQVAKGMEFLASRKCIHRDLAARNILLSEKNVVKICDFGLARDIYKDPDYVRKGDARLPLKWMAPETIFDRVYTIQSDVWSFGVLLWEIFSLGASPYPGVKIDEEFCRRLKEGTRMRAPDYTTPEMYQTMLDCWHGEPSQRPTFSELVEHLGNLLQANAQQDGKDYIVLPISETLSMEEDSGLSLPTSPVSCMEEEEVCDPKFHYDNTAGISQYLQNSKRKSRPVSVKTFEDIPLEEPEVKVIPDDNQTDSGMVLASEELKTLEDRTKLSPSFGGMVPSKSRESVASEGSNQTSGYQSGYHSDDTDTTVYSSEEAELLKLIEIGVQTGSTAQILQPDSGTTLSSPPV
Description: Inhibition of recombinant human N-terminal His6-tagged KDR (790 to end residues) expressed in baculovirus infected Sf21 insect cells after 60 mins by ELISA

Aurora kinase B, sequence (Q96GD4 whole entry): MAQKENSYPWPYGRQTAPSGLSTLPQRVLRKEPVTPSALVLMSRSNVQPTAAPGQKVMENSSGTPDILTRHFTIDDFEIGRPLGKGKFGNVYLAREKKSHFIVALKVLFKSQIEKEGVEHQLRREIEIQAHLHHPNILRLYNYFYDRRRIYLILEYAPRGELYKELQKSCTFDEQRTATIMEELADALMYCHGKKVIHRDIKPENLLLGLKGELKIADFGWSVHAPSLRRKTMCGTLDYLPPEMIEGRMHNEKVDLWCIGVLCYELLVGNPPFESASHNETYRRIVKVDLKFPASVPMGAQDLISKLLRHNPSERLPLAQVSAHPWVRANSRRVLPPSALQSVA
Receptor tyrosine-protein kinase erbB-2 (Homo sapiens), sequence (P04626 whole entry): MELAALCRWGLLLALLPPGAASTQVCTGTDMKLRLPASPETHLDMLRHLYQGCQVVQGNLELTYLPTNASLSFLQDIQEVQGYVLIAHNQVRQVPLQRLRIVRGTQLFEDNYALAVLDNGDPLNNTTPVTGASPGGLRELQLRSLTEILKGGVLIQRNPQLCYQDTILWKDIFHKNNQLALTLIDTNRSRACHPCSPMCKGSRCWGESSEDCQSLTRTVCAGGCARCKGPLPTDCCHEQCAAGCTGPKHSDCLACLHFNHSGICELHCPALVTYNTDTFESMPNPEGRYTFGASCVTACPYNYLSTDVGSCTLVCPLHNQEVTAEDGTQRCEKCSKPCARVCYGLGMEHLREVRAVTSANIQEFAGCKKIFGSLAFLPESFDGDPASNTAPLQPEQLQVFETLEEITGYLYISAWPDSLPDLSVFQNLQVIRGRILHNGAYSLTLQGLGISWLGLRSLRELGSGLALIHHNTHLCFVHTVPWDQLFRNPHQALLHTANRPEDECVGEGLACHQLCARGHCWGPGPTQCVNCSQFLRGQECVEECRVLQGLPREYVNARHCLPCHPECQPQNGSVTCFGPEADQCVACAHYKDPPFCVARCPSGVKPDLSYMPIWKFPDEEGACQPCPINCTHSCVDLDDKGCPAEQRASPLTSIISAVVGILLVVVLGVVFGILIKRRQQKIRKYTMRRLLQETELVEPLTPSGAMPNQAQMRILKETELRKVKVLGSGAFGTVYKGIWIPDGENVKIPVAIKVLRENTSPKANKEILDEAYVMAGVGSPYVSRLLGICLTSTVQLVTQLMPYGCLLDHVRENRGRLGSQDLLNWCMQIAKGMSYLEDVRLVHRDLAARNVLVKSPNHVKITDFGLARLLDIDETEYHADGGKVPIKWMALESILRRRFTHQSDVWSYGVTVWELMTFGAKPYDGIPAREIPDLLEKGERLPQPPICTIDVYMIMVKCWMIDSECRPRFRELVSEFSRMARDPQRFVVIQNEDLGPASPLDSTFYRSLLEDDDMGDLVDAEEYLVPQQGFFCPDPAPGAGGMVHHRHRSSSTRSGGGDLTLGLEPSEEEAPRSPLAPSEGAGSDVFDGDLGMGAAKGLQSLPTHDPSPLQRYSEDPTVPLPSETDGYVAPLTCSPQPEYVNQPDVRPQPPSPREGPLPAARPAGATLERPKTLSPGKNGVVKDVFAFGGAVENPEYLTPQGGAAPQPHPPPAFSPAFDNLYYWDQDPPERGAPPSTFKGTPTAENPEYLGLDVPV

Structure (SMILES): CN(C)C/C=C/C(=O)Nc1cc2c(Nc3ccc(F)c(Cl)c3)ncnc2cc1O[C@H]1CCOC1
- inhibition [1]: 97.6%

Structure (SMILES): Cc1ccc(C2=Nc3c(n[nH]c3C)Nc3nc(NC(C)(C)C)ncc32)cc1
- IC50 [2]: 357 nM
- IC50 [3]: 1180 nM
- IC50 [4]: 84.5 nM

Structure (SMILES): COc1ccccc1C1=Nc2c(n[nH]c2C)Nc2nc(SC)ncc21
- IC50 [2]: 191 nM
- IC50 [3]: 2320 nM
- IC50 [4]: 102 nM

Structure (SMILES): CSc1ncc2c(n1)Nc1n[nH]c(C)c1N=C2c1ccccc1C(F)(F)F
- IC50 [2]: 128 nM
- IC50 [3]: 307 nM
- IC50 [4]: 205 nM

Structure (SMILES): CSc1ncc2c(n1)Nc1n[nH]c(C)c1N=C2c1ccc(Cl)cc1
- IC50 [2]: 183 nM
- IC50 [3]: 1620 nM
- IC50 [4]: 318 nM

Structure (SMILES): Cc1ccc(C2=Nc3c(n[nH]c3C)Nc3nc(N4CCCCC4)ncc32)cc1
- IC50 [2]: 77.6 nM
- IC50 [3]: 50.3 nM
- IC50 [4]: 30 nM

Structure (SMILES): Cc1ccc(C2=Nc3c(n[nH]c3C)Nc3nc(N4CCN(C)CC4)ncc32)cc1
- IC50 [2]: 108 nM
- IC50 [3]: 86 nM
- IC50 [4]: 24.7 nM

Structure (SMILES): CSc1ncc2c(n1)Nc1n[nH]c(C)c1N=C2c1ccccc1Cl
- IC50 [2]: 94 nM
- IC50 [3]: 278 nM
- IC50 [4]: 83.7 nM

Structure (SMILES): CSc1ncc2c(n1)Nc1n[nH]c(C)c1N=C2c1cccc(F)c1
- IC50 [2]: 167 nM
- IC50 [3]: 611 nM
- IC50 [4]: 330 nM

Structure (SMILES): CSc1ncc2c(n1)Nc1n[nH]c(C)c1N=C2c1cccc(Cl)c1
- IC50 [2]: 102 nM
- IC50 [3]: 1000 nM
- IC50 [4]: 141 nM

Structure (SMILES): CSc1ncc2c(n1)Nc1n[nH]c(C)c1N=C2c1ccc(C(F)(F)F)cc1
- IC50 [2]: 423 nM
- IC50 [3]: 854 nM
- IC50 [4]: 209 nM
